Patent US12083101B2, “Biaryl derivatives as YAP/TAZ-TEAD protein-protein interaction inhibitors” (Novartis AG, priority 2020, dated 2024)
Where two headings read alike, the source gives them in different places.

Key:
[1] = target: Avi-humanTEAD4 217-434 / Cy5 labeled humanYAP 60-100 (Homo sapiens (Human), UniProt Q15561); test: TR-FRET YAP-TEAD4 in-vitro biochemical assay; type: binding; details: 1 nM Avi-humanTEAD4 217-434, 20 nM Cy5-humanYAP 60-100, 1 h room temperature
[2] = test system: MKN-45/Ubc-luc cells; test: Proliferation assay (resazurin), MKN-45; type: cell-based; details: 72 hours incubation
[3] = test system: NCI-H2052 Tet-On shYAP_2371 pLenti6 MCAT_Luc cells; test: Proliferation assay (resazurin), NCI-H2052; type: cell-based; details: 72 hours incubation
In short: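 The NCI-H2052 line carries a Tet-inducible shRNA against the YAP1 3′UTR and an MCAT luciferase reporter. The day after seeding, it received eleven 2-fold compound dilutions at 0.1% DMSO, and viability was read by resazurin fluorescence.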

[4] = test system: MKN-45/Ubc-luc cells; test: Reporter gene specificity control (Ubc-luciferase), MKN-45
[5] = test system: NCI-H2052 Tet-On shYAP_2371 pLenti6 MCAT_Luc cells (YAP-dependent transcription); test: YAP reporter gene activity assay (MCAT-luciferase), NCI-H2052; type: cell-based; details: 24 hours incubation, BrightGlo luminescence
In short: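 Luminescence was read 5 min after BrightGlo, following 24 h at 37 °C of compound exposure (eleven 2-fold dilutions, DMSO normalized to 0.1%). Cells were NCI-H2052 with a YAP-responsive MCAT-luciferase and a Tet-inducible shRNA against YAP1 3′UTR. Cell-free background was removed, values were normalized to vehicle, and IC50 was fitted with four parameters.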

[6] = Homo sapiens, MKN-45, 24 h, read-out: Reporter gene assay MKN-45 IC50 [μM], MKN-45/Ubc-luc cells (YAP deleted, specificity control), 24 hours incubation
[7] = read-out: Reporter gene assay MKN-45 IC50, MKN-45/Ubc-luc cells (YAP deleted, specificity control), 24 hours incubation

Sequence of Avi-humanTEAD4 217-434 / Cy5 labeled humanYAP 60-100 (Q15561 217-434): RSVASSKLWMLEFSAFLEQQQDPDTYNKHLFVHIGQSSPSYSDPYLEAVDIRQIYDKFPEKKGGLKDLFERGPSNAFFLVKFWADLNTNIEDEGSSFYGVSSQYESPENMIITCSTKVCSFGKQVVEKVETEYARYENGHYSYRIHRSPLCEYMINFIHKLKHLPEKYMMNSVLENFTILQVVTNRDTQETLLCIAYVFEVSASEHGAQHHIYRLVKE

| Structure (SMILES) | IC50 [1] [nM] | GI50 ([2]; Homo sapiens) [µM] | GI50 ([3]; Homo sapiens, NCI-H2052, 72 h) [nM] | IC50 [4, 6] [µM] | IC50 ([5]; Homo sapiens, NCI-H2052, 24 h) [nM] | GI50 [2] [µM] | GI50 [3] [nM] | IC50 [4, 7] [µM] | IC50 [5] [nM] |
| --- | --- | --- | --- | --- | --- | --- | --- | --- | --- |
| CN(C)C(=O)C1CCC(NC[C@@]2(c3ccccc3)Cc3c(cc(F)c(Cl)c3-c3c(C(N)=O)ccc(OC(F)F)c3F)O2)CC1 (single isomer, unassigned) [Example 58a] | 4 | > 10 | 125 | > 10 | 67 | – | – | – | – |
| C[C@@H](O)CNC[C@@]1(c2ccccc2)Cc2c(cc(F)c(Cl)c2-c2c(C(N)=O)ccc(OC(F)F)c2F)O1 (atropisomer, axis not shown) [Example 74, 2-((2S,4S)-5-chloro-6-fluoro-2-((((R)-2-hydroxypropyl)amino)methyl)-2-phenyl-2,3-dihydrobenzofuran-4-yl)-4-(difluoromethoxy)-3-fluorobenzamide] | 33 | > 10 | 674 | > 10 | 419 | – | – | – | – |
| COc1ccc(C(N)=O)c(-c2c(Cl)ccc3c2C[C@@](CN)(c2ccccc2)O3)c1F (single isomer, unassigned) [Example 5b] | 23300 | – | – | – | – | > 10 | > 10000 | > 10 | > 10000 |
| Fc1cc2c(c(-c3ccccc3)c1Cl)C[C@](c1ccccc1)(C1COCCN1)O2 (single isomer, unassigned) [Example 162] | 1520 | > 10 | 1760 | > 10 | 1000 | – | – | – | – |
| CNC[C@]1(c2ccccc2)Oc2cc(F)c(Cl)c(-c3c(C(N)=O)ccc(OC)c3F)c2[C@@H]1CO (atropisomer, axis not shown) [Example 147, 2-((2S,3R,4S)-5-Chloro-6-fluoro-3-(hydroxymethyl)-2-((methylamino)methyl)-2-phenyl-2,3-dihydrobenzofuran-4-yl)-3-fluoro-4-methoxybenzamide] | 1 | > 3.3 | 5 | > 3.3 | 11 | – | – | – | – |
| COc1ccc(C(N)=O)c(-c2c(C(F)(F)F)ccc3c2C[C@@](CN)(c2ccccc2)O3)c1 (atropisomer, axis not shown) [Example 128, 2-((2S,4R)-2-(Aminomethyl)-2-phenyl-5-(trifluoromethyl)-2,3-dihydrobenzofuran-4-yl)-4-methoxybenzamide] | 176 | > 10 | 7050 | > 10 | 5720 | – | – | – | – |
| NC(=O)c1ccc(OC(F)F)c(F)c1-c1c(Cl)c(F)cc2c1C[C@@](CN[C@@H]1CCC[C@H](O)C1)(c1ccccc1)O2 (atropisomer, axis not shown) [Example 83, 2-((2S,4S)-5-chloro-6-fluoro-2-((((1R,3S)-3-hydroxycyclohexyl)amino)methyl)-2-phenyl-2,3-dihydrobenzofuran-4-yl)-4-(difluoromethoxy)-3-fluorobenzamide] | 24 | > 10 | 503 | > 10 | 394 | – | – | – | – |
| CNC(=O)c1ccc(OC)c(F)c1-c1c(C#N)ccc2c1C[C@@](CN[C@H]1CC[C@](C)(O)CC1)(c1ccccc1)O2 (atropisomer, axis not shown) [Example 129, 2-((2S,4R)-5-Cyano-2-((((trans)-4-hydroxy-4-methylcyclohexyl)amino)methyl)-2-phenyl-2,3-dihydrobenzofuran-4-yl)-3-fluoro-4-methoxy-N-methylbenzamide] | 25 | > 10 | 892 | > 10 | 615 | – | – | – | – |
| C[C@H]1c2c(cc(F)c(Cl)c2-c2c(C(N)=O)ccc(OCCO)c2F)O[C@]1(CN[C@H]1CC[C@](C)(O)CC1)c1ccccc1 (atropisomer, axis not shown) [Example 117a, 2-((2S,3S,4S)-5-chloro-6-fluoro-2-((((trans)-4-hydroxy-4-methylcyclohexyl)amino)methyl)-3-methyl-2-phenyl-2,3-dihydrobenzofuran-4-yl)-3-fluoro-4-(2-hydroxyethoxy)benzamide] | < 1 | > 10 | 14 | > 10 | 15 | – | – | – | – |
| COc1ccc(C(N)=O)c(-c2c(Cl)ccc3c2C[C@@](CN[C@H]2CC[C@@H](O)CC2)(c2ccccc2)O3)c1F (relative stereo) [Example 27b, 2-((2S,4S)-5-chloro-2-(((cis-4-hydroxycyclohexyl)amino)methyl)-2-phenyl-2,3-dihydrobenzofuran-4-yl)-3-fluoro-4-methoxybenzamide] | 1 | – | – | – | – | > 10 | 182 | > 10 | 78 |
| COCCOc1ccc(C(N)=O)c(-c2c(Cl)c(F)cc3c2[C@H](C)[C@@](CN)(c2ccccc2)O3)c1F (atropisomer, axis not shown) [Example 106, 2-((2S,3S,4S)-2-(aminomethyl)-5-chloro-6-fluoro-3-methyl-2-phenyl-2,3-dihydrobenzofuran-4-yl)-3-fluoro-4-(2-methoxyethoxy)benzamide] | < 1 | > 10 | 13 | > 10 | 14 | – | – | – | – |
| CC(=O)NC1CCC(NC[C@@]2(c3ccccc3)Cc3c(cc(F)c(Cl)c3-c3c(C(N)=O)ccc(OC(F)F)c3F)O2)CC1 (single isomer, unassigned) [Example 56b] | 11 | – | – | – | – | > 10 | 372 | 7.6 | 194 |
| NC[C@@]1(c2ccccc2)Cc2c(cc(F)c(Cl)c2-c2cc(SC(F)(F)CO)ccc2C(N)=O)O1 (atropisomer, axis not shown) [Example 39, 2-((2S,4R)-2-(aminomethyl)-5-chloro-6-fluoro-2-phenyl-2,3-dihydrobenzofuran-4-yl)-4-((1,1-difluoro-2-hydroxyethyl)thio)benzamide] | 102 | > 10 | 2830 | > 10 | 2150 | – | – | – | – |
| NC[C@@]1(c2ccccc2)Cc2c(ccc(Cl)c2-c2c(C(N)=O)ccc(OC(F)F)c2F)O1 (atropisomer, axis not shown) [Example 11, 2-((2S,4S)-2-(aminomethyl)-5-chloro-2-phenyl-2,3-dihydrobenzofuran-4-yl)-4-(difluoromethoxy)-3-fluorobenzamide] | 21 | > 10 | 284 | > 20 | 173 | – | – | – | – |
| CNC(=O)c1ccc(OCCO)c(F)c1-c1c(Cl)c(F)cc2c1C[C@](c1ccccc1)([C@@H]1CCCCN1)O2 (atropisomer, axis not shown) [Example 161, 2-((2S,4S)-5-Chloro-6-fluoro-2-phenyl-2-((S)-piperidin-2-yl)-2,3-dihydrobenzofuran-4-yl)-3-fluoro-4-(2-hydroxyethoxy)-N-methylbenzamide] | 29 | > 10 | 167 | > 10 | 174 | – | – | – | – |
| NC(=O)c1ccc(OCCO)c(F)c1-c1c(Cl)c(F)cc2c1C[C@](c1ccccc1)([C@@H]1CCCN1)O2 (atropisomer, axis not shown) [Example 151, 2-((2S,4S)-5-Chloro-6-fluoro-2-phenyl-2-((S)-pyrrolidin-2-yl)-2,3-dihydrobenzofuran-4-yl)-3-fluoro-4-(2-hydroxyethoxy)benzamide] | 2 | > 10 | 22 | > 10 | 15 | – | – | – | – |
